What was measured:
Format in all cases: cell-based
OR5K1 = target: T1, OR5K1 (Homo sapiens, UniProt Q8NHB7); assay: Luciferase reporter assay: suppression of the skatole response of OR5K1 expressed in HEK293 cells; settings: test substance 100 μM mixed with 300 μM skatole, HEK293 cells expressing OR5K1; for inhibition at 100 µM: 4 h, read-out: Inhibition rate 5K1
T1 construct: expressed in transfected cells; host or cells: HEK293
T1 sequence (Q8NHB7 1-308): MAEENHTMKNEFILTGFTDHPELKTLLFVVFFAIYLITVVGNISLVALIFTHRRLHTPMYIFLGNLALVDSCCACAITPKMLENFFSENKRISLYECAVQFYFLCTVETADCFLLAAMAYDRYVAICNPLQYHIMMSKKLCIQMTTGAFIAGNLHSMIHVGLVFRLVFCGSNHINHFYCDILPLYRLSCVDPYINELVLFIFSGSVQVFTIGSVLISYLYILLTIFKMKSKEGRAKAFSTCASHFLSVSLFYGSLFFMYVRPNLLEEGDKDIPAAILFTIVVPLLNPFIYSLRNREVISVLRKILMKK
Method: (§1) A reaction solution having a composition shown in Table 1 was prepared on a clean bench, and left to stand for 15 minutes. The solution was dispensed to each well of a 96-well plate (BD). Subsequently, HEK293 cells (100 μL, 3×10^5 cells/cm^2) were seeded in each well and cultured for 24 hours in an incubator at 37° C. and under 5% CO2 conditions.
(§2) The olfactory receptor expressed in HEK293 cells activates adenylate cyclase with the aid of Gαs present in cells, to thereby increase intracellular cAMP level. In this study, odorant response was measured by a luciferase reporter gene assay which monitored the intracellular cAMP level as the luminescence value derived from a firefly luciferase gene (fluc2P-CRE-hygro). Also, a Renilla luciferase gene fused downstream of a CMV promoter (hRluc-CMV) was also transfected to HEK293 cells as an internal standard to correct errors in gene transfer efficiency and number of cells.
(§3) Cell culturing was performed for four hours in a CO2-incubator, whereby the luciferase gene sufficiently expressed in the cells. Luciferase activity was measured by means of a Dual-Glo™ luciferase assay system (promega) according to an instruction manual thereof. The luminescence value derived from firefly luciferase induced by odorant stimulation was divided by the luminescence value of cells which were not stimulated with odorants. The thus-obtained—called “fold increase”—was employed as an index for response intensity.
(§4) The response inhibition rate of a test substance was calculated as follows. Firstly, luminescence value derived from firefly luciferase induced by stimulation with skatole (X), and luminescence value in cells which expressed the same receptor but were not stimulated with skatole (Y) were determined. By subtracting Y from X, the receptor activity by stimulation with skatole alone (X−Y) was determined. Similarly, the luminescence value induced by stimulation with a mixture of skatole and a test substance (Z) was determined. Through subtracting Y (the luminescence value in cells which expressed the same receptor but were not stimulated with skatole) from Z, the receptor activity (Z−Y) by stimulation with a mixture of skatole and the test substance was obtained. From the thus-obtained receptor activity by stimulation with skatole alone (X−Y) and the receptor activity in the presence of a test material (Z−Y), the response inhibition rate of the test substance was calculated by the following equation: Inhibition rate (%)={1−(Z−Y)/(X−Y)}×100.
(§5) In each case, multiple independent experiments were performed in duplicate, and the average of each experiment was used.

OR5P3 = target: T2, OR5P3 (Homo sapiens, UniProt Q8WZ94); assay: Luciferase reporter assay: suppression of the skatole response of OR5P3 expressed in HEK293 cells; settings: test substance 100 μM mixed with 300 μM skatole, HEK293 cells expressing OR5P3
T2 construct: expressed in transfected cells; host or cells: HEK293
T2 sequence (Q8WZ94 1-311): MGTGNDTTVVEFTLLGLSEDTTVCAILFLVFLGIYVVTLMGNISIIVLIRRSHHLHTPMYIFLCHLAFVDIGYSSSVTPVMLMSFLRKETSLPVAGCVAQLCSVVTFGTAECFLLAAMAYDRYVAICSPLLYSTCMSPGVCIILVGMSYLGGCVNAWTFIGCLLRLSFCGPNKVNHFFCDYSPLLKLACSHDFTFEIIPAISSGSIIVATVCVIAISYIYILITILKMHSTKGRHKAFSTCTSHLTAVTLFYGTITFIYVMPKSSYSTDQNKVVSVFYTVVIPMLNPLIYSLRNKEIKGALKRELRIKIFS
Method: as §1, §2, §3, §4, §5

OR8H1 = target: T3, OR8H1 (Homo sapiens, UniProt Q8NGG4); assay: Luciferase reporter assay: suppression of the skatole response of OR8H1 expressed in HEK293 cells; settings: test substance 100 μM mixed with 300 μM skatole, HEK293 cells expressing OR8H1; for inhibition at 100 µM: 4 h, read-out: Inhibition rate 8H1
T3 construct: expressed in transfected cells; host or cells: HEK293
T3 sequence (Q8NGG4 1-311): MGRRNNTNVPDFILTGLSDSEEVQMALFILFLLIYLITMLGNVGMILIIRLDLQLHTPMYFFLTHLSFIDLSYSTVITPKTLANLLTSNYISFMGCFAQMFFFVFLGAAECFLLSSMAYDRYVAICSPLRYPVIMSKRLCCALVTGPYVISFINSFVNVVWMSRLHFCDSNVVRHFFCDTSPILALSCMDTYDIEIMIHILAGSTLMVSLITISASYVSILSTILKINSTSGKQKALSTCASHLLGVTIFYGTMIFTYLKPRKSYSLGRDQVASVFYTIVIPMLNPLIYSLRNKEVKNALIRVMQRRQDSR
Method: as §1, §2, §3, §4, §5

OR2W1 = target: T4, OR2W1 (Homo sapiens, UniProt Q9Y3N9); assay: Luciferase reporter assay: suppression of the skatole response of OR2W1 expressed in HEK293 cells; settings: test substance 100 μM mixed with 300 μM skatole, HEK293 cells expressing OR2W1; for inhibition at 100 µM: 4 h, read-out: Inhibition rate 2W1
T4 construct: expressed in transfected cells; host or cells: HEK293
T4 sequence (Q9Y3N9 1-320): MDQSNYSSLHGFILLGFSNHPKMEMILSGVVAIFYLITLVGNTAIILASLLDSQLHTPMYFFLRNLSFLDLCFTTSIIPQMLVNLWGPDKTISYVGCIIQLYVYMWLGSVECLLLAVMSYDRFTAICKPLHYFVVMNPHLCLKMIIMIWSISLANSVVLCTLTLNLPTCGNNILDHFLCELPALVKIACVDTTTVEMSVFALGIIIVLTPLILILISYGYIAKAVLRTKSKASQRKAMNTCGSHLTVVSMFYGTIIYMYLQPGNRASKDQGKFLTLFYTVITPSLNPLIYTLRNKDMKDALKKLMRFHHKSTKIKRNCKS
Method: as §1, §2, §3, §4, §5

Compound | Inhibition rate 5K1 (OR5K1) | Inhibition rate 5P3 (OR5P3) | Inhibition rate 8H1 (OR8H1) | Inhibition rate 2W1 (OR2W1) | inhibition at 100 µM (OR2W1) [%] | inhibition at 100 µM (OR5K1) [%] | inhibition at 100 µM (OR8H1) [%]
2,6-Dimethyl-2-octanol/3,7-Dimethyl-3-octanol [tetrahydromugol] | C (C >20%) | C (C >20%) | C (C >20%) |  |  |  | 
4(3)-(4-Methyl-3-pentenyl)-3-cyclohexenylmethyl acetate [myraldyl acetate] |  | C (C >20%) | C (C >20%) | C (C >20%) |  |  | 
C=CCOC(=O)CCC1CCCCC1 [Allyl cyclohexylpropionate] | C (C >20%) |  | C (C >20%) | C (C >20%) |  |  | 
CCC(O)COC1CCCCC1C(C)(C)C (stereo not shown) [Ambercore, 1-(2-tert-Butylcyclohexyloxy)-2-butanol] |  | B (B >50%) |  |  | > 80 | 50 to 80 | > 80
CC1(C)CCCC2(C)C1CCC1(C)OCCC12 (stereo not shown) [Ambroxane, Dodecahydro-3a,6,6,9a-tetramethyl-naphtho[2.1-b]furan] | C (C >20%) | B (B >50%) | A (A >80%) | A (A >80%) |  |  | 
CCOC(=O)C1OC1(C)c1ccccc1 (stereo not shown) [Ethyl-2,3-epoxy-3-methyl-3-phenyl propionate] | C (C >20%) | C (C >20%) | B (B >50%) |  |  |  | 
C=CC(C)=CCC(C)(C)C(=NO)C(C)C [Labienoxime, 2,4,4,7-Tetramethyl-6,8-nonadiene-3-one oxime] |  |  |  |  | 50 to 80 | < 20 | 20 to 50
CC1=CC(C)C(C=O)CC1 (stereo not shown) [Triplal, Dimethyl-3-cyclohexene-1-carboxaldehyde] |  | C (C >20%) | C (C >20%) | C (C >20%) |  |  | 
CC(C)(C)c1ccc(CCC=O)cc1 [bourgeonal, 3-(4-tert-butylphenyl)propionaldehyde] |  |  |  |  | > 80 | 50 to 80 | < 20
CC/C=C\CCOC(=O)c1ccccc1O [cis-3-hexynlyl salicylate, 3(Z)-Hexenyl 2-hydroxy benzoate] | C (C >20%) | B (B >50%) |  | B (B >50%) |  |  | 
CC(=O)OCCC(C)CCC=C(C)C (stereo not shown) [citronellyl acetate, 3,7-Dimethyl-6-octen-1-yl acetate] |  |  |  |  | 20 to 50 | 20 to 50 | 20 to 50
CC(=O)OC(C)(C)Cc1ccccc1 [dimethylbenzylcarbinyl acetate, α,α-Dimethyl phenylethyl acetate] | C (C >20%) | C (C >20%) | B (B >50%) |  |  |  | 
CCCCCCOC(=O)c1ccccc1O [hexyl salicylate, n-Hexyl-o-hydroxy benzoate] |  | C (C >20%) |  | B (B >50%) |  |  | 
CC(C)=CCCC1=CCC(C=O)CC1 (stereo not shown) [myrac aldehyde, 4-(4-Methyl-3-penten-1-yl)-3-cyclohexene-1-carboxaldehyde] |  |  |  |  | > 80 | < 20 | 20 to 50
C=C(C)C1CC=C(C=O)CC1 (stereo not shown) [perillaldehyde, 4-(1-Methylethenyl)-1-cyclohexene-1-carboxyaldehyde] |  |  |  |  | < 20 | 20 to 50 | 50 to 80
CC(C)Cc1ccc(CC(C)C=O)cc1 (stereo not drawn) [suzaral, α-Methyl-4-(2-methylpropyl)-benzenepropanal] |  |  |  |  | 20 to 50 | < 20 | 50 to 80
CC(=O)C=CC1=C(C)CCCC1(C)C [β-ionone, 4-(2,6,6-Trimethyi-1-cyclohexen-1-yl)-3-buten-2-one] | B (B >50%) |  | A (A >80%) | C (C >20%) |  |  | 
Hexahydro-4,7-methanoinden-5(6)-yl acetate [tricyclodecenyl acetate] | C (C >20%) | C (C >20%) | B (B >50%) |  |  |  | 
